From patent US20030158093A1, “Bifunctional glycopeptide antibiotics and combinatorial libararies thereof” (priority 2001, published 2003)
≈ marks a conversion by molar mass, not a printed value. Values belong to the molecule of their own block, whether it stands above or below them.

Columns and labels:
Format in all cases: cell-based
[1] = tested on: E. faecium sensitive (49624); test: MIC, standard microdilution assay, E. faecium sensitive; conditions: strain 49624; for MIC: Enterococcus faecium, 22 h
Description: (§1) Briefly, compound 7 and compound 10 were synthesized by utilizing procedures described, for example, in Thompson, C. et al., J. Am. Chem. Soc., 1999, 121, 1237. Compound 8 was prepared from tri-O-acetyl-D-glucal by a one-step procedure described by Chen, Z. Ph.D. Dissertation, Princeton University, Princeton, N.J. 2001.

[2] = tested on: E. faecalis sensitive (29212); test: MIC, standard microdilution assay, E. faecalis sensitive; conditions: strain 29212; for MIC: Enterococcus faecalis, 22 h
Description: as §1

S. aureus (29213) = test: MIC, standard microdilution assay, S. aureus; conditions: strain 29213; for MIC: Staphylococcus aureus, 22 h
Description: as §1

[3] = tested on: E. faecalis resistant (VanB) (CL4877); test: MIC, standard microdilution assay, E. faecalis resistant (VanB); conditions: strain CL4877; for MIC: Enterococcus faecalis, 22 h
Description: as §1

transglycosylation = test: Inhibition of transglycosylation in a permeabilized E. coli model
[4] = tested on: E. faecium resistant (VanA) (CL4931); test: MIC, standard microdilution assay, E. faecium resistant (VanA); conditions: strain CL4931; for MIC: Enterococcus faecium, 22 h
Description: as §1

Molecule: CCCCCCCCCCCCOP(=O)(O)OC1OC(C(N)=O)C(OC)C(NC(=O)Nc2ccc(Cl)c(C(F)(F)F)c2)C1OC1OC(CO)C(O)C(O)C1NC(=O)c1cccc(C(F)(F)F)c1 (stereo not drawn) [Compound 4]
MIC ([1]; Table 2): 6.2 µg/mL (≈ 6.14 µM)
MIC ([2]; Table 2): 6.2 µg/mL (≈ 6.14 µM)
MIC (S. aureus (29213); Table 2): 6.2 µg/mL (≈ 6.14 µM)
MIC ([3]; Table 2): 3.1 µg/mL (≈ 3.07 µM)
inhibition of transglycosylation (transglycosylation): inhibits transglycosylation
MIC ([4]; Table 2): 6.2 µg/mL (≈ 6.14 µM)

MIC ([1]; Table 2): 250 µg/mL (≈ 266 µM)
MIC ([2]; Table 2): 125 µg/mL (≈ 133 µM)
MIC (S. aureus (29213); Table 2): 125 µg/mL (≈ 133 µM)
MIC ([3]; Table 2): 250 µg/mL (≈ 266 µM)
MIC ([4]; Table 2): 250 µg/mL (≈ 266 µM)
Molecule: COc1cccc(OC)c1OCCOC1OC(C(N)=O)C(OC)C(NC(=O)Nc2ccc(Cl)c(C(F)(F)F)c2)C1OC1OC(CO)C(O)C(O)C1NC(=O)c1cccc(C(F)(F)F)c1 (stereo not drawn) [Compound 6]

Molecule: CN[C@H](CC(C)C)C(=O)N[C@H]1C(=O)N[C@@H](CC(N)=O)C(=O)N[C@H]2C(=O)N[C@H]3C(=O)N[C@H](C(=O)N[C@H](C(=O)O)c4cc(O)cc(O)c4-c4cc3ccc4O)[C@H](O)c3ccc(c(Cl)c3)Oc3cc2cc(c3O)Oc2ccc(cc2Cl)[C@H]1O [Vancomycin Aglycon, Vancomycin aglycone]
22-hr MIC E. faecium sensitive ([1]; Table 2): 2 µg/mL
22-hr MIC E. faecalis sensitive ([2]; Table 2): 8 µg/mL
22-hr MIC S. aureus (S. aureus (29213); Table 2): 2 µg/mL
22-hr MIC E. faecalis resistant (VanB) ([3]; Table 2): >500 µg/mL
22-hr MIC E. faecium resistant (VanA) ([4]; Table 2): >500 µg/mL

Molecule: vancomycin [Compound 1a]
MIC E. faecium sensitive ([1]; Table 1, 35° C., 22h): 2 µg/mL
MIC E. faecalis sensitive ([2]; Table 1, 35° C., 22h): 16 µg/mL
MIC S. aureus (S. aureus (29213); Table 1, 35° C., 22h): 4 µg/mL
MIC E. faecalis resistant (VanB) ([3]; Table 1, 35° C., 22h): >500 µg/mL
MIC E. faecium resistant (VanA) ([4]; Table 1, 35° C., 22h): >500 µg/mL
